From patent US9504674B2, “TrkB agonists and methods of use” (EMORY UNIVERSITY, priority 2010, dated 2016) come the findings set out here.

The labels stand for the following.
B1: BDNF: brain-derived neurotrophic factor, from Roche (protein, UniProt P23560 19-247, looked up)
Neurotrophic factor BDNF …: APMKEANIRGQGGLAYPGVRTHGTLESVNGPKAGSRGLTSLADTFEHVIEELLDEDQKVRPNEENNKDADLYTSRVMLSSQVPLEPPLLFLLEEYKNYLDAANMSMRVRRHSDPARRGELSVCDSISEWVTAADKKTAVDMSGGTVTVLEKVPVSKGQLKQYFYETKCNPMGYTKEGCRGIDKRHWNSQCRTTQSYVRALTMDSKKRIGWRFIRIDTSCVCTLTIKRGR

The first test deals with T1, TrkB F616A (Mus musculus, UniProt P15209, F616A).
T1 construct: from tissue; host or cells: TrkB F616A knock-in mice (brain; whole animal in the forced swim test)
T1 sequence (P15209 32-821 F616A): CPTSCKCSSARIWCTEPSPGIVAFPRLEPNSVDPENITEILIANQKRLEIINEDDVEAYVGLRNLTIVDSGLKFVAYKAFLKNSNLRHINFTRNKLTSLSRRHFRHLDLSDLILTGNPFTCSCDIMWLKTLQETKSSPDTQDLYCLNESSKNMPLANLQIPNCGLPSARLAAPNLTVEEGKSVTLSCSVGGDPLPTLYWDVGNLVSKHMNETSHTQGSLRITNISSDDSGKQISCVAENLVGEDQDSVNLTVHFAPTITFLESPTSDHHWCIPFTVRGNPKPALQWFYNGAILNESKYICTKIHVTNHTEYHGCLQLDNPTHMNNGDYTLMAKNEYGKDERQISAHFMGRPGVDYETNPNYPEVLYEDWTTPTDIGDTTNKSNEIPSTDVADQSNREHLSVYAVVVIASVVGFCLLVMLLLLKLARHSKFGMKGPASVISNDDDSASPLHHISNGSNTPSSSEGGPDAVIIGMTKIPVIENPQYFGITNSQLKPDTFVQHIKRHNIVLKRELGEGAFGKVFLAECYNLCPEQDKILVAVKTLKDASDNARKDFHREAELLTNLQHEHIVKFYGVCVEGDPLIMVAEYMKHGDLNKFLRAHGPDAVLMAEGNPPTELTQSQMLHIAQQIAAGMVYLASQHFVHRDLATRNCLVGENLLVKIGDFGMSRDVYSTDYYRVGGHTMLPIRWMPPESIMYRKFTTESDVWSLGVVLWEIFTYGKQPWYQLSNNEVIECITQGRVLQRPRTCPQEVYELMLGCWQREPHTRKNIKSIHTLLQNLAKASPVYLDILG
Briefly: Forced swim test in TrkB F616A knockin mice with or without 1NMPP1. It counts as in vivo. The settings on record: TrkB F616A knockin mice, control groups without TrkB agonist. As to the method:
Male TrkB knockin mice were given the regular drinking water or 1NMPP1 (25 μM) containing drinking water one day before we started to inject the drugs and sustained throughout the whole experiment. The indicated control (saline) and drugs were administrated for 5 days. […] None of the drugs produced a significant change in 1NMPP1 treated TrkB KI mice (n=6 to 7 mice) as compared to control.
TrkB F616A knockin mice were used to assess whether the behavior responses by 7,8-DHF and its derivative is mediated by TrkB receptor. Transgenic mice were subjected to saline or 1NMPP1 pretreatment, respectively.
As for `CC(C)(C)n1nc(Cc2cccc3ccccc23)c2c(N)ncnc21` [1NMPP1], the “immobility time, 1NMPP1 treated versus saline control group” value was “No significant difference”.

A further test deals with T2, TrkB (Rattus norvegicus, UniProt Q63604).
T2 construct: endogenous in cells; host or cells: primary rat cortical neurons (E17 embryos, 13 DIV)
T2 sequence (Q63604 32-821): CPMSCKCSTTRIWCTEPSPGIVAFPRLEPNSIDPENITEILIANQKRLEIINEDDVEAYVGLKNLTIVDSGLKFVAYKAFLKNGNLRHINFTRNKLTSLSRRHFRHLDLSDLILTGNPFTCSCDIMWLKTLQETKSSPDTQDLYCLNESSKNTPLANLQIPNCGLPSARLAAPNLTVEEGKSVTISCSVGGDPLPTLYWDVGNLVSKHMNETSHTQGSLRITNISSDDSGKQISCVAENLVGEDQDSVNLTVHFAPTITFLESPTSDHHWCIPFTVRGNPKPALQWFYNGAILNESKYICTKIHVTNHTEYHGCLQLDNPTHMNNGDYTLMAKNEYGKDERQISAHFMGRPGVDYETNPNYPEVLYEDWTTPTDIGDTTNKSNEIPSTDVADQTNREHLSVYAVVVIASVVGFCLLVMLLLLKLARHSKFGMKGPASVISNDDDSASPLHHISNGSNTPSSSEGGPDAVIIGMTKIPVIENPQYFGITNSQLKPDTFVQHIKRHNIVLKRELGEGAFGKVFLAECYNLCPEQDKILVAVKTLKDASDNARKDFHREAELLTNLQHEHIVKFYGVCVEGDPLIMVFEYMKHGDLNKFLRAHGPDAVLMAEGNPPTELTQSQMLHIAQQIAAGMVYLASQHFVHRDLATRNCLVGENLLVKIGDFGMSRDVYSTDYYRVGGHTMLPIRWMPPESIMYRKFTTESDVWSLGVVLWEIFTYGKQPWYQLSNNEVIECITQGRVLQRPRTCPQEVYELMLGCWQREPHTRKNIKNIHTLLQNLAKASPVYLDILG
Briefly: TrkB phosphorylation in primary rat cortical neurons (immunoblotting). It counts as cell-based. As to conditions: 500 nM compound, 20 min, primary rat cortical neurons, immunoblotting. As for the experimental part: Primary rat cortical neurons from E17 embryos (13 DIV) were treated with 500 nM various chemicals for 15 min. The neuronal cell lysates were collected and resolved on 10% SDS-PAGE. Immunoblotting was conducted with various antibodies. p-TrkB Y817 antibody was employed at 1:20000-40000 dilution.
Primary rat cortical neurons from E17 embryos (13 days in vitro (DIV)) were treated with 500 nM various chemicals for 15 min. The neuronal cell lysates were collected and resolved on 10% SDS-PAGE. Immunoblotting was conducted with various antibodies. p-TrkB Y817 antibody was employed at 1:20,000-40,000 dilution (top panel). Equal amount of TrkB was loaded in all of the samples (middle panel). P-Akt 473 ELISA analysis with the neuronal lysates (bottom panel).
7,8-dihydroxyflavone (7,8-DHF) is a small molecular TrkB agonist. Preliminary structure-activity relationship study (SAR) supports that 7,8-catechol moiety is essential for the agonistic effect by 7,8-DHF. To explore the structure-activity relationship (SAR) in depth, the TrkB stimulatory activity was examined by numerous flavonoid derivatives. The numeric positions and each ring's nomenclature are designated (FIG. 1A). Compounds were dissolved in DMSO, then diluted into […] with 1× PBS (final vehicle contains 10% DMSO/PBS) (FIG. 1B). Primary rat cortical neurons were treated with 500 nM compounds for 20 min. The cell lysates were analyzed by immunoblotting. […] Downstream activation of the TrkB target Akt was tightly correlated with TrkB activation patterns by these derivatives (FIG. 1C, bottom panel). As observed, the hydroxy groups on B ring can regulate 7,8-DHF's stimulatory activity on TrkB receptor. As 2′-hydroxy, especially 3′-hydroxy group, elevates the agonistic effect, whereas 4′-hydroxy group diminishes its stimulatory effect.
To compare the TrkB activation by these synthetic compounds, primary cortical cultures were prepared. Cortical neurons were treated with 500 nM of various compounds for 20 min and cell lysates were collected. […] Replacing the H-bond acceptor O atom with hydrogen bond donor NH abolishes its stimulatory effect. […] On the other hand, 7,8-DHF provoked TrkB activation with the minimal concentration of 100 nM (FIG. 2B, right panels). To further study 4′-DMA-7,8-DHF's kinetics on TrkB activation, primary neurons were treated for various time points. 4′-DMA-7,8-DHF swiftly activated TrkB as soon as 5 minutes following treatment. […] To compare the stimulatory effect on TrkB receptor in mouse brains, 1 mg/kg of the synthesized derivatives were injected into C57BL/6J mice. TrkB activation was monitored at different time points.
Additional compounds are listed as designated from a to m (FIG. 6A). The compounds were dissolved in DMSO, then diluted into 500 μM with 1× PBS (final vehicle contains 10% DMSO/PBS). The primary rat cortical neurons (13 DIV) were treated with 500 nM compounds for 20 min. The cell lysates were analyzed by immunoblotting. […] Moreover, p-Akt ELISA was monitored to quantitatively analyze the agonistic activities of these compounds.
Consider `O=c1cc(-c2ccc(O)cc2)oc2c(O)c(O)ccc12` [7,8,4′-trihydroxyflavone, reference compound], for which the “TrkB activation (phosphorylation) compared to vehicle control” value was “barely activated TrkB”.

For the molecule `O=c1c(O)c(-c2ccc(O)c(O)c2)oc2c(O)c(O)cc(O)c12` [3,5,7,8,3′,4′-hexahydroxylatedflavone, reference compound], the “TrkB activation (phosphorylation) compared to vehicle control” value is “completely blocked TrkB phosphorylation”.

Regarding `O=c1cc(-c2cncnc2)oc2c(O)c(O)ccc12` [#4, 7,8-dihydroxy-2(pyrimidin-5-yl)-4H-chromen-4-one], the “TrkB activation (phosphorylation) compared to vehicle control” value was “strongly activated TrkB”.

In the case of `O=c1cc(-c2ccccc2)oc2c(O)c(O)cc(O)c12` [5,7,8-trihydroxyflavone], the “TrkB activation (phosphorylation) compared to vehicle control” value was “stimulated TrkB activation”.

Consider `O=c1cc(-c2ccc(F)cc2)[nH]c2c(O)c(O)ccc12` [#2, 2-(4-fluorophenyl)-7,8-dihydroxyquinolin-4(1H)-one], for which the “TrkB activation (phosphorylation) compared to vehicle control” value is reported as “failed to provoke TrkB activation”.

Consider `O=c1cc(-c2cccc(O)c2)oc2c(O)c(O)ccc12` [7,8,3′-trihydroxyflavone], for which the “TrkB activation (phosphorylation) compared to vehicle control” value is “even more robust stimulatory effect on TrkB phosphorylation than the lead”.

`O=c1cc(-c2ccccc2O)oc2c(O)c(O)ccc12` [7,8,2′-trihydroxyflavone]: the “TrkB activation (phosphorylation) compared to vehicle control” value is given as “stimulated TrkB activation”.

For `O=c1c(O)c(-c2ccccc2)oc2cc(O)ccc12` [3,7-dihydroxyflavone], the “TrkB activation (phosphorylation) compared to vehicle control” value is recorded as “stimulated TrkB activation”.

On to `O=c1cc(-c2cccc(O)c2)oc2cc(O)ccc12` [7,3′-dihydroxyflavone], for which the “TrkB activation (phosphorylation) compared to vehicle control” value is listed as “even more robust stimulatory effect on TrkB phosphorylation than the lead”.

Take `O=c1cc(-c2ccccc2)[nH]c2c(O)c(O)ccc12` [#3, 7,8-dihydroxy-2-phenylquinolin-4(1H)-one]: the “TrkB activation (phosphorylation) compared to vehicle control” value was “failed to provoke TrkB activation”.

`COc1ccc(-c2cc(=O)c3ccc(O)cc3o2)cc1` [7-hydroxy-4′methoxyflavone, reference compound]: the “TrkB activation (phosphorylation) compared to vehicle control” value is listed as “barely activated TrkB”.

Take `COc1ccc2c(=O)cc(-c3ccccc3)oc2c1O` [8-hydroxy-7-methoxyflavone, reference compound]: the “TrkB activation (phosphorylation) compared to vehicle control” value is on record as “barely activated TrkB”.

`O=c1c(O)c(-c2ccccc2O)oc2c(O)c(O)ccc12` [3,7,8,2′-tetrahydroxyflavone]: the “TrkB activation (phosphorylation) compared to vehicle control” value is reported as “stimulated TrkB activation”.

The test is the same for the next values; noted with them: BDNF 100 ng/ml, primary rat cortical neurons.
Turning to B1, the “TrkB activation (phosphorylation)” value is “strongly activated TrkB”.
